Measured values reported in patent US7906508B2, “3,4-dihydrobenzoxazine compounds and inhibitors of vanilloid receptor subtype 1 (VRI) activity” (Japan Tobacco Inc., priority 2005, dated 2011).
Like-named read-outs stand apart in the source and are kept apart here.

Experiments:
human VR1 = biological target: T1, human VR1 (Homo sapiens, UniProt Q8NER1); test: Inhibition of Ca2+ entry in cells caused by proton (Test Example [1]); format: cell-based; settings: for IC50: rat glioma (C6BU1) cells stably expressing human VR1, proton stimulation, pH 5.7, Ca2+ uptake, Fura 2-AM, read-out: VRI Inhibition IC50
T1 construct: expressed in transfected cells
T1 sequence (Q8NER1 whole entry): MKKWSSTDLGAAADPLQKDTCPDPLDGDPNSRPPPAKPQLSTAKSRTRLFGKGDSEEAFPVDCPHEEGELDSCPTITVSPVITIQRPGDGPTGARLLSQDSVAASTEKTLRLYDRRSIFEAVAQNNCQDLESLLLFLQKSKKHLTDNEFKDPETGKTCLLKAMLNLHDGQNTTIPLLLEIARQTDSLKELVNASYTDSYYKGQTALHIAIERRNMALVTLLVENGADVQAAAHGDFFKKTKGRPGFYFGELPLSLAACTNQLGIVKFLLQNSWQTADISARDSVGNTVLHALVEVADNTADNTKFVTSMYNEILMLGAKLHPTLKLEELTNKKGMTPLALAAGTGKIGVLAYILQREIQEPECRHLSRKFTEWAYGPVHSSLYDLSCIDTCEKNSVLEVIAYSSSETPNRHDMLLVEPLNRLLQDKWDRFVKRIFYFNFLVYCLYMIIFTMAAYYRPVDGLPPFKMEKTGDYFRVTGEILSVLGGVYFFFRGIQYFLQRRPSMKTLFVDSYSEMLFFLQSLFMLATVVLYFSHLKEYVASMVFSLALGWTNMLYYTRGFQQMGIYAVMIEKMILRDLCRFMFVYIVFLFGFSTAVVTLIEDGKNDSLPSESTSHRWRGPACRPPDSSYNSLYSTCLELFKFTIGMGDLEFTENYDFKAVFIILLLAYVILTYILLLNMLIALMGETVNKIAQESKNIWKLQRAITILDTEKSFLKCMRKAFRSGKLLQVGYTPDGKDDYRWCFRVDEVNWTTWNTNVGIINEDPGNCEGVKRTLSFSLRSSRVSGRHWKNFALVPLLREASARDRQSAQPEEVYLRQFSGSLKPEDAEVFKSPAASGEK
Method: An inhibitory effect on VR1 activity was evaluated by measuring Ca^2+ uptake in cells.
Rat glioma (C6BU1) cells stably expressing human VR1 were suspended in 20 mM MES buffer (at pH 6.8, contg. 20 mM 2-morpholinoethanesulfonate (referred to as MES hereinafter), 115 mM NaCl, 5 mM KCl, 1 mM MgCl2 and 14 mM D-glucose) to make a cell density of 1×10^6 cells/mL. A fluorescent dye, Fura 2-AM solution (Dojindo Corporate, Cat. No. 343-05401) was added to the suspension to make a 5 μM concentration thereof. Further, Pluronic F-127 (Wako Pure Chemical Industries, Ltd., Cat. No. P6866) was added to make a 0.1% content thereof. Then, the suspension was incubated at 37° C. for 30 min. The cells were harvested and washed two times with 20 mM MES buffer. The cells were suspended again to make a cell density of 5×10^5 cells/mL. A 500-μL portion of the suspension was taken with a cuvette (MC MEDICAL, INC., Cat. No. SSR3121), to which 10 μL of 20 mM MES buffer containing 250 mM CaCl2 was added to incorporate Ca^2+ into the cells. At the same time, 5 μL of a test compound solution (in a range of 100 μM to 10 nM in DMSO) was also added to provide a final concentration thereof in a range of 1 μM to 0.1 nM. Alternatively, 5 μL of DMSO was added as control to provide a final concentration of 1% DMSO. The suspension was set in an intracellular ionometer (CAF-110; JASCO) 10 min after those additions. The cells were stimulated with protons by addition of 50 μL of 20 mM MES buffer at pH 1.1 to the suspension to set its pH at 5.7. The activity of the test compound was determined as a difference between the minimum of fluorescence intensity before agonist stimulation and its maximum after the stimulation. The value of IC50 was derived from percentage of inhibition by the test compound compared with the control.

[1] = Metabolic stability test in liver S9 (Test Example [2]); format: in vitro ADME, human; settings: for Human liver S9 remaining ratio: human liver S9 2 mg protein/mL, 37° C., 60 minutes of incubation vs 0 minute
Method: Human liver S9 (final concentration: 2 mg protein/mL) was suspended in 100 mM potassium phosphate buffer (at pH 7.4, which contained β-nicotinamide adenine dinucleotide phosphate: 1.3 mM, D-glucose-6-phosphate: 3.3 mM, magnesium chloride: 3.3 mM and glucose-6-phosphate dehydrogenase: 0.45 U/mL) and further mixed with the test compound dissolved in DMSO. The mixture was incubated at 37° C. for 0 and 60 minutes and then supplemented with acetonitrile containing formic acid (final concentration 0.1%). The test compound (uncharged) in a supernatant after centrifugation was measured using high-performance liquid chromatography/mass spectrometry (LC/MS). A remaining ratio (%) was calculated from the obtained measurement value according to the following equation: Remaining ratio (%)=(amount of test compound after 60 minutes of incubation/amount of test compound on 0 minute of incubation)×100

[2] = In-vitro membrane permeability test (Test Example [3]); format: in vitro ADME; settings: human, Caco-2, Caco2 cells, 2 hours
Method: (§1) 10 mM DMSO solution of the test compound was diluted with Hanks buffer (pH 6.5) to 25 μM to make a test compound solution. 300 μL of Apical buffer (Hanks buffer (pH 6.5)) and 1 mL of Basolateral buffer (4.5% BSA-containing Hanks buffer (pH 7.4)) were added to the apical side (mucosal side) and the basolateral side (serosal side), respectively, of Caco2 cells (cells cultured for 6 days after seeding) seeded onto a plate for permeability test (BIOCOAT HTS Caco2 Assay system: BD Biosciences), and preincubated at 37° C. for 20 minutes, followed by measurement of a transepithelial electrical resistance value. Each buffer on the apical side and basolateral side was removed by aspiration. Then, 300 μL of the test compound solution and 1 mL of Basolateral buffer were added to the apical side and the basolateral side, respectively, and incubated at 37° C. for 2 hours with stirring at 60 rpm. Then, sampling was performed from each of the apical side and the basolateral side, and the sample was supplemented with acetonitrile and centrifuged. The test compound (uncharged) in the supernatant was measured using high-performance liquid chromatography/tandem mass spectrometry (LC/MS/MS: Quantum, Thermo Quest).
(§2) A membrane permeability coefficient (Papp) was calculated according to the following equation: Papp(cm/sec.)=(dx/dt)/(A×C0)
(§3) (wherein dx is the amount of the test compound (uncharged) on the basolateral side after incubation, dt is an incubation time, A is the surface area of the cell membrane, and C0 is the initial concentration of the test compound on the apical side.)

Caco2 cells = test: as above; format: in vitro ADME; settings: summary judgement
Method: as §1, §2, §3

[3] = Stability test in Japanese Pharmacopoeia 1 solution (Test Example [4]); format: physicochemical; settings: for remaining ratio in Japanese Pharmacopoeia 1 solution: CH3CN : Japanese Pharmacopoeia 1 solution 3:7, 0.05 mM, 40° C., after 8 hours vs 0 hour
Method: The test compound was dissolved in a mixed solution of CH3CN and Japanese Pharmacopoeia 1 solution (volume ratio 3:7) and adjusted in a vial for HPLC to a concentration of 0.05 mM. The test compound was measured by HPLC at 40° C. after 0 and 8 hours. The measurement value on 0 hour was defined as 100% to determine the remaining ratio of the test compound after 8 hours.
The “Japanese Pharmacopoeia 1 solution” here represents a solution in which 21 ml of concentrated hydrochloric acid was added to 6 g of sodium chloride and further adjusted to 3 L with distilled water.

[4] = apical (pH 6.5) to basolateral (pH 7.4, 4.5% BSA), 25 μM, 37° C., read-out: membrane permeability Papp
[5] = compared with the compound of Comparative Example 8

Structure (SMILES)	IC50 (human VR1)	Human liver S9 remaining ratio [1]	Papp A→B at 2 h, 25 μM [2, 4]	membrane permeability (in words) (Caco2 cells)	metabolic stability in human liver S9 (in words) ([1]; summary judgement)	remaining ratio in Japanese Pharmacopoeia 1 solution [3]	stability in gastric juice (in words) ([3]; inferred from stability in Japanese Pharmacopoeia 1 solution)	value of IC50 relative to Comparative Example 8 (human VR1; [5])	liver S9 remaining ratio relative to Comparative Example 8 [1, 5]	Papp A→B at 2 h, 25 μM ([2]; apical to basolateral, read-out: membrane permeability in terms of the Papp values)
Cc1ccc(N2c3cccc(C(=O)Nc4ccc(C(F)(F)F)nc4)c3OC[C@@H]2CO)nc1 [Comparative Example 8]	7 nM	62.9%	43.1 ×10⁻⁶ cm/s	high membrane permeability	–	–	–	–	–	–
Cc1ccc(N2c3cccc(C(=O)Nc4ccc(OC(C)C)c(F)c4)c3OC[C@@H]2CO)nc1 [Comparative Example 11]	0.36 nM	66.7%	40.3 ×10⁻⁶ cm/s	high membrane permeability	–	–	–	–	–	–
Cc1ccc(N2c3cccc(C(=O)Nc4ccc(OC(C)(C)C)c(F)c4)c3OC[C@@H]2CO)nc1 [Comparative Example 13]	0.12 nM	91.3%	28.6 ×10⁻⁶ cm/s	–	excellent metabolic stability	62.1%	inferior stability in gastric juice	–	–	–
Cc1ccc(N2c3cccc(C(=O)Nc4cc(F)c(OCC(F)(F)F)c(F)c4)c3OC[C@@H]2CO)nc1 [Example 1-8, (S)-4-(5-picoline-2-yl)-3-hydroxymethyl-N-[3,5-difluoro-4-(2,2,2-trifluoroethoxy)phenyl]-3,4-dihydro-2H-benzo[1,4]oxazine-8-carboxamide]	0.038 nM	–	13.6 ×10⁻⁶ cm/s	–	–	101%	–	–	–	–
Cc1ccc(N2c3cccc(C(=O)Nc4ccc(OCC(F)(F)F)nc4)c3OC[C@@H]2CO)nc1 [Example 1-6, (S)-4-(5-picoline-2-yl)-3-hydroxymethyl-N-[2-(2,2,2-trifluoroethyloxy)pyridine-5-yl]-3,4-dihydro-2H-benzo[1,4]oxazine-8-carboxamide]	0.15 nM	–	37.5 ×10⁻⁶ cm/s	–	–	100%	–	about 50 times	about 1.5 times	≥ 30 ×10⁻⁶ cm/s
